Earlier results as cited in patent US20080119444A1, “Methods and compositions for the treatment of cancer” (priority 2006, published 2008).

Columns and labels:
[1] = tamoxifen users
[2] = ATAC trial
early breast cancer = conditions: for contralateral breast cancers (events) / disease-free survival events / distant metastases (events) / time-to-recurrence events: median follow-up 68 months
breast cancer = conditions: for disease-free survival: after 2 to 3 years of tamoxifen: switch to exemestane or continue tamoxifen, total 5 years, median follow-up 30.6 months
HMG-CoA reductase = molecular target: T1, HMG-CoA reductase (Homo sapiens, UniProt P04035)
T1 sequence (P04035 1-888): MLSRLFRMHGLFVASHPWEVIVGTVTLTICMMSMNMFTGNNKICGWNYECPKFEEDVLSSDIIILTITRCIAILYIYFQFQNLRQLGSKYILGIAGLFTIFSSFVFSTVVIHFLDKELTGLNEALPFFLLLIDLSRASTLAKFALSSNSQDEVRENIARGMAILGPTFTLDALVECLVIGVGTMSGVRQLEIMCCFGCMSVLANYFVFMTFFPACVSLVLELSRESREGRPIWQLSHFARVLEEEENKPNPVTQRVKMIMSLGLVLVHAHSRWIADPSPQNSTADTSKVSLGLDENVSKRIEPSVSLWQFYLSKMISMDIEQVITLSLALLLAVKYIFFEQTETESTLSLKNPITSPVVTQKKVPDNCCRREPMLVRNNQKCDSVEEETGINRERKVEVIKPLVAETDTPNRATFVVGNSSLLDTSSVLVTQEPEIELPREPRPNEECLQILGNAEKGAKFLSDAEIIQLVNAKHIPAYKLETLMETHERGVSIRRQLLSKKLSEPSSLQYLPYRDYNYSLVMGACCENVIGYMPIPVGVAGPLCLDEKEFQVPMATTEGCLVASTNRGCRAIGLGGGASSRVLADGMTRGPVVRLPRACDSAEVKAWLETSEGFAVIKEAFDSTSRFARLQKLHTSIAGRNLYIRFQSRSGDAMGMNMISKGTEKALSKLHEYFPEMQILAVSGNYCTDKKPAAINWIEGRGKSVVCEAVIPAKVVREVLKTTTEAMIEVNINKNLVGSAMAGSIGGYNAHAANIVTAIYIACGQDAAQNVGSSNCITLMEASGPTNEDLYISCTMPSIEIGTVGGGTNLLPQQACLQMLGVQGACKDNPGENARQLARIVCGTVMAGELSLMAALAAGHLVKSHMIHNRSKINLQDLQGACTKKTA

[3] = tested on: endocrine-responsive breast cancer; conditions: adjuvant letrozole compared with tamoxifen, postmenopausal women
[4] = in vivo
[5] = exemestane vs tamoxifen
[6] = 5 years of tamoxifen treatment, women with ER+ disease
[7] = at 15 years, ER+ (or ER unknown) tumors, 5 years of tamoxifen
[8] = sequence tamoxifen then exemestane vs continued tamoxifen

## CC/C(=C(\c1ccccc1)c1ccc(OCCN(C)C)cc1)c1ccccc1 [tamoxifen]
[1]
  10-year risk of mortality from endometrial cancer: 2 per 1000
[2]
  withdrawal rate for drug-related adverse events: 7.2%
Early breast cancer
  contralateral breast cancers (events): 59
  disease-free survival events: 651 events
  distant metastases (events): 375
  time-to-recurrence events: 498
ER+ breast cancer; [6]
  reduction of annual rate of mortality: 34%
  reduction of annual rate of recurrence: 41%
ER+ breast cancer; [7]
  absolute reduction in mortality: 9.2%
  absolute reduction in recurrence: 11.8%
Breast cancer
  disease-free survival: 86.8%

## CC(C)c1c(C(=O)Nc2ccccc2)c(-c2ccccc2)c(-c2ccc(F)cc2)n1CC[C@@H](O)C[C@@H](O)CC(=O)O [Atorvastatin, atorvastatin]
HMG-CoA reductase
  potency relative to another statin: approximately twice as potent as simvastatin

## CC(C)c1nc(N(C)S(C)(=O)=O)nc(-c2ccc(F)cc2)c1/C=C/[C@@H](O)C[C@@H](O)CC(=O)O [rosuvastatin]
HMG-CoA reductase
  potency relative to another statin: more potent than atorvastatin

## N#Cc1ccc(C(c2ccc(C#N)cc2)n2cncn2)cc1 [letrozole]
[3]
  risk of recurrent disease: reduced the risk of recurrent disease
[4]
  grade 3, 4, or 5 cardiac events: 2.1%
  patients with hypercholesterolemia reported at least once during treatment: 43.6%
Compared to placebo
  fracture rate compared to placebo: non-significant increase in fracture rate
other
  fracture rate compared to tamoxifen: significantly increase fracture rate

## C=C1C[C@@H]2[C@H](CC[C@]3(C)C(=O)CC[C@@H]23)[C@@]2(C)C=CC(=O)C=C12 [exemestane]
Compared to placebo
  bone loss during treatment: minor bone loss
other
  fracture rate compared to tamoxifen: non-significant increase in fracture rate
[5]
  diarrhea: 4.3%
Breast cancer
  disease-free survival: 91.5%
Breast cancer; [8]
  absolute difference in disease-free survival: 4.7%
  disease-free survival HR: 0.68

## CC(C)(C#N)c1cc(Cn2cncn2)cc(C(C)(C)C#N)c1 [anastrozole]
[2]
  withdrawal rate for drug-related adverse events: 5.1%
Early breast cancer; anastrozole vs tamoxifen
  reduction of contralateral breast cancers: 42%
Early breast cancer
  contralateral breast cancers (events): 35
  disease-free survival events: 575 events
  distant metastases (events): 324
  time-to-recurrence events: 402
